In brackets after ≈: the same amount, converted by molar mass. Read-outs that look alike come from different tables or passages of the source.
Experiments:
[1] = test system: A. baumannii NCTC 13423; assay: Antibacterial activity, pre-exposure; type: cell-based, Acinetobacter baumannii; details: for Average inhibition %, biofilms viability / Average inhibition %, planktonic cells viability / inhibition at 10 µM / inhibition at 15 µM / inhibition at 25 µM / inhibition at 50 µM: A. baumannii NCTC 13423, pre-exposure, ± SD; for inhibition at 10 µM / inhibition at 15 µM / inhibition at 25 µM / inhibition at 50 µM / MIC: Acinetobacter baumannii, NCTC13423
Outline: (§1)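 Pre-exposure format: compounds added with bacteria, 18 h aerobic at 37 °C with shaking. Planktonic growth read by OD and resazurin (20 μM final) fluorescence; biofilms by resazurin viability then crystal violet biomass (A595). Resazurin incubation time/temperature varied by species.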

[2] = test system: S. aureus ATCC 25923; assay: Antibacterial activity, post-exposure on preformed 18-h-old biofilms; type: cell-based, Staphylococcus aureus; details: for Average inhibition %, biofilms viability / Average inhibition %, planktonic cells viability / inhibition at 25 µM / inhibition at 50 µM / inhibition at 100 µM / inhibition at 200 µM: ± SD; for inhibition at 25 µM / inhibition at 50 µM / inhibition at 100 µM / inhibition at 200 µM: Staphylococcus aureus; for inhibition at 25 µM: ATCC25923, 25 µM; for inhibition at 50 µM: ATCC25923, 50 µM; for inhibition at 100 µM: ATCC25923, 100 µM; for inhibition at 200 µM: ATCC25923, 200 µM
Outline: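 Biofilms grown 18 h without compound, medium then replaced and compound added for a further 24 h. Planktonic OD and resazurin (20 μM final) fluorescence (ex 560/em 590 nm) read; washed biofilms stained with 20 μM resazurin 30 min at 37 °C, then ethanol-fixed and crystal violet-stained, absorbance 595 nm.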

[3] = test system: S. aureus ATCC 25923; assay: Antibacterial activity, pre-exposure (planktonic cells and biofilm formation); type: cell-based, Staphylococcus aureus; details: for MIC / inhibition at 5 µM / inhibition at 10 µM / inhibition at 15 µM / inhibition at 25 µM: Staphylococcus aureus, ATCC25923; for inhibition at 5 µM / inhibition at 10 µM / inhibition at 15 µM / inhibition at 25 µM / Average inhibition %, biofilms viability / Average inhibition %, planktonic cells viability: pre-exposure, ± SD
Outline: as §1

[4] = test system: P. aeruginosa ATCC 9027; assay: Antibacterial activity, pre-exposure; type: cell-based, Pseudomonas aeruginosa; details: for Average inhibition %, biofilms viability / Average inhibition %, planktonic cells viability / inhibition at 50 µM / inhibition at 100 µM / inhibition at 150 µM / inhibition at 200 µM: P. aeruginosa ATCC 9027, pre-exposure, ± SD; for MIC / inhibition at 50 µM / inhibition at 100 µM / inhibition at 150 µM / inhibition at 200 µM: Pseudomonas aeruginosa; for inhibition at 50 µM / inhibition at 100 µM / inhibition at 150 µM / inhibition at 200 µM: ATCC9027
Outline: as §1

[5] = 10 µM, read-out: Average inhibition %, biofilms biomass
[6] = 10 µM, read-out: Average inhibition %, planktonic cells turbidity
[7] = 15 µM, read-out: Average inhibition %, biofilms biomass
[8] = 15 µM, read-out: Average inhibition %, planktonic cells turbidity
[9] = 25 µM, read-out: Average inhibition %, biofilms biomass
[10] = 25 µM, read-out: Average inhibition %, planktonic cells turbidity
[11] = 50 µM, read-out: Average inhibition %, biofilms biomass
[12] = 50 µM, read-out: Average inhibition %, planktonic cells turbidity
[13] = read-out: Average inhibition %, biofilms biomass
[14] = read-out: Average inhibition %, planktonic cells turbidity

In the case of `CCCCCCCCc1ccc(CC(N)(CO)CO)cc1` [Compound 44, 2-Amino-2-(4-octylbenzyl)propane-1,3-diol], the “Average inhibition %, biofilms viability” value ([1]; 10 µM) is reported as 0.6 ± 1%, the “Average inhibition %, planktonic cells viability” value ([1]; 10 µM) is reported as 12.3 ± 2.4% and the “Average inhibition %, biofilms viability” value ([1]; 15 µM) is reported as 8.6 ± 7.8%. The “Average inhibition %, planktonic cells viability” value ([1]; 15 µM) was 9.2 ± 5.8%, the “Average inhibition %, biofilms viability” value ([1]; 25 µM) was 88.7 ± 15.2% and the “Average inhibition %, planktonic cells viability” value ([1]; 25 µM) was 83.5 ± 27.6%. The “Average inhibition %, biofilms viability” value ([1]; 50 µM) was 99.9 ± 1%, the “Average inhibition %, planktonic cells viability” value ([1]; 50 µM) was 99.8 ± 0.5% and the inhibition at 10 µM [1, 5] was 0%. For the same molecule, the inhibition at 10 µM [1, 6] was 0%, the inhibition at 15 µM [1, 7] was 5.6 ± 6.5% and the inhibition at 15 µM [1, 8] was 2.8 ± 3.7%. It also gave an inhibition at 25 µM [1, 9] of 69.4 ± 13.7%, an inhibition at 25 µM [1, 10] of 88.1 ± 19% and an inhibition at 50 µM [1, 11] of 86.2 ± 2.3%. It also gave an inhibition at 50 µM [1, 12] of 98.3 ± 1.2%, an MIC ([1]; pre-exposure, Inactive = no activity up to 50 μM, > = some inhibition but no MIC reached, read-out: MIC A. baumannii NCTC 13423) of 25 to 50 µM (≈ 7.34 to 14.7 µg/mL) and an MIC ([1]; supplementary molecular formula strings sheet, read-out: MIC (A. baumannii)) of 25 to 50 µM (≈ 7.34 to 14.7 µg/mL). For the same molecule, the “Average inhibition %, biofilms viability” value ([2]; 25 µM) was 21 ± 11.5%, the “Average inhibition %, planktonic cells viability” value ([2]; 25 µM) was 3.8 ± 6.6% and the “Average inhibition %, biofilms viability” value ([2]; 50 µM) was 38.2 ± 8.2%. For the same molecule, the “Average inhibition %, planktonic cells viability” value ([2]; 50 µM) was 56.1 ± 15.4%, the “Inhibition of viability and total biomass of preformed biofilms” value ([2]; 100 μM) was “at least 70%” and the “Average inhibition %, biofilms viability” value ([2]; 100 µM) was 74 ± 21.5%. For the same molecule, the “Average inhibition %, planktonic cells viability” value ([2]; 100 µM) was 99.8 ± 0.6%, the “Average inhibition %, biofilms viability” value ([2]; 200 µM) was 98.5 ± 0.1% and the “Average inhibition %, planktonic cells viability” value ([2]; 200 µM) was 100.1 ± 0.1%. The inhibition at 25 µM [2, 13] was 36 ± 3.3%, the inhibition at 25 µM [2, 14] was 6.1 ± 10.6% and the inhibition at 50 µM [2, 13] was 51.6 ± 10.7%. It also gave an inhibition at 50 µM [2, 14] of 58.6 ± 10.2%, an inhibition at 100 µM [2, 13] of 70.5 ± 19.2% and an inhibition at 100 µM [2, 14] of 84.7 ± 3.3%. The inhibition at 200 µM [2, 13] was 92 ± 1.2%, the inhibition at 200 µM [2, 14] was 85.9 ± 5.3% and the MIC ([3]; lowest concentration with no visible growth (>90% inhibition of turbidity and viability of planktonic cells), 18 h, read-out: MIC S. aureus ATCC 25923) was 15 to 25 µM (≈ 4.4 to 7.34 µg/mL). It also gave an inhibition at 5 µM ([3]; 5 µM, read-out: Average inhibition %, biofilms biomass) of 23.2 ± 23.4%, an inhibition at 5 µM ([3]; 5 µM, read-out: Average inhibition %, planktonic cells turbidity) of 18.4 ± 6.2% and an inhibition at 10 µM [3, 5] of 36.6 ± 27.8%. For the same molecule, the inhibition at 10 µM [3, 6] was 31.2 ± 8.9%, the inhibition at 15 µM [3, 7] was 76.6 ± 21.5% and the inhibition at 15 µM [3, 8] was 79.2 ± 28.2%. It also gave an inhibition at 25 µM [3, 9] of 93.1 ± 4.2%, an inhibition at 25 µM [3, 10] of 99.1 ± 0.7% and an MIC ([3]; read-out: MIC (S. aureus)) of 15 to 25 µM (≈ 4.4 to 7.34 µg/mL). The “Average inhibition %, biofilms viability” value ([3]; 5 µM) was 24.9 ± 12.6%, the “Average inhibition %, planktonic cells viability” value ([3]; 5 µM) was 0 ± 0% and the “Average inhibition %, biofilms viability” value ([3]; 10 µM) was 44.4 ± 4.9%. For the same molecule, the “Average inhibition %, planktonic cells viability” value ([3]; 10 µM) was 0 ± 0%, the “Average inhibition %, biofilms viability” value ([3]; 15 µM) was 76.2 ± 29.5% and the “Average inhibition %, planktonic cells viability” value ([3]; 15 µM) was 66.8 ± 54.1%. For the same molecule, the “Average inhibition %, biofilms viability” value ([3]; 25 µM) was 99.7 ± 0%, the “Average inhibition %, planktonic cells viability” value ([3]; 25 µM) was 100 ± 0.2% and the “Average inhibition %, biofilms viability” value ([4]; 50 µM) was 9 ± 8%. The “Average inhibition %, planktonic cells viability” value ([4]; 50 µM) was 31.4 ± 12.8%, the “Average inhibition %, biofilms viability” value ([4]; 100 µM) was 43 ± 44.4% and the “Average inhibition %, planktonic cells viability” value ([4]; 100 µM) was 95.8 ± 3.5%. The “Average inhibition %, biofilms viability” value ([4]; 150 µM) was 42.2 ± 50.3%, the “Average inhibition %, planktonic cells viability” value ([4]; 150 µM) was 92.1 ± 9.3% and the “Average inhibition %, biofilms viability” value ([4]; 200 µM) was 34.5 ± 36.6%. The “Average inhibition %, planktonic cells viability” value ([4]; 200 µM) was 88.7 ± 10.2%, the MIC ([4]; ATCC9027, pre-exposure, Inactive = no activity up to 200 μM, > = some inhibition but no MIC reached, read-out: MIC P. aeruginosa ATCC 9027) was > 200 µM and the MIC ([4]; ATCC9027, supplementary molecular formula strings sheet, read-out: MIC (P. aeruginosa)) was > 200 µM. It also gave an inhibition at 50 µM [4, 11] of 35.2 ± 19.9%, an inhibition at 50 µM [4, 12] of 28.4 ± 10.9% and an inhibition at 100 µM ([4]; 100 µM, read-out: Average inhibition %, biofilms biomass) of 57.7 ± 30.4%. For the same molecule, the inhibition at 100 µM ([4]; 100 µM, read-out: Average inhibition %, planktonic cells turbidity) was 93.7 ± 2.6%, the inhibition at 150 µM ([4]; 150 µM, read-out: Average inhibition %, biofilms biomass) was 54.7 ± 35.2% and the inhibition at 150 µM ([4]; 150 µM, read-out: Average inhibition %, planktonic cells turbidity) was 92.2 ± 4.8%. The inhibition at 200 µM ([4]; 200 µM, read-out: Average inhibition %, biofilms biomass) was 48.7 ± 28.5% and the inhibition at 200 µM ([4]; 200 µM, read-out: Average inhibition %, planktonic cells turbidity) was 88.5 ± 4.4%.

— PMC8296573, “Synthesis and Biological Evaluation of Fingolimod Derivatives as Antibacterial Agents” (ACS Omega, 2021)
